Assay type in all cases: cell-based
Experiment [1] deals with RKO p27 uninduced (proliferating) colon adenocarcinoma cells. The experiment in a line: Alamar Blue cell viability assay, RKO p27 uninduced (proliferating). The conditions noted are these: Homo sapiens, RKOp27, Table B1, anti-proliferative/cytotoxic activity, 72 hours, read-out: −log EC50 RKO p27 uninduced (proliferating) (converted). The protocol: The anti-proliferative/cytotoxic activity of the compounds described herein can be tested on subclones of RKO human colon adenocarcinoma cells (Schmidt et al., Oncogene 19, 2423-2429; 2000) using the Alamar Blue cell viability assay (described in O'Brien et al. Eur J Biochem 267, 5421-5426, 2000). The compounds are dissolved as 10 mM solutions in DMSO and subsequently diluted in semi-logarithmic steps. DMSO dilutions are further diluted 1:100 into Dulbecco's modified Eagle's medium (DMEM) containing 10% fetal calf serum to a final concentration twice as much as the final concentration in the test. RKO subclones are seeded into 96 well flat bottom plates at a density of 4000 cells per well in a volume of 50 μl per well. 24 hours after seeding the 50 μl each of the compound dilutions in DMEM medium are added into each well of the 96 well plate. Each compound dilution is tested as triplicates. Wells containing untreated control cells are filled with 50 μl DMEM medium containing 1% DMSO. The cells are then incubated with the substances for 72 hours at 37° C. in a humidified atmosphere containing 5% carbon dioxide. To determine the viability of the cells, 10 μl of an Alamar Blue solution (Biosource) are added and the fluorescence is measured at an extinction of 544 nm and an emission of 590 nm. For the calculation of the cell viability the emission value from untreated cells is set as 100% viability and the emission rates of treated cells are set in relation to the values of untreated cells. Viabilities are expressed as % values. The Graphpad Prism program is used for the calculation of EC50 values for anti-proliferative/cytotoxic activity out of the obtained dose-response curves.
(§1) To determine the cell cycle specific mode of action, subclones of RKO colon adenocarcinoma cells (RKOp21 or RKOp27 as described by Schmidt et al. in Oncogene 19, 2423-2429; 2000) are seeded into 96 well flat bottom plates at a density of 16000 cells per well in a volume of 50 μl per well in DMEM growth medium with 10% FCS containing 10 μM Ponasterone A. 24 hours after seeding the 50 μl each of the compound dilutions in DMEM medium are added into each well of the 96-well plate. Each compound dilution is tested as triplicates. Wells containing untreated control cells are filled with 50 μl DMEM medium containing 1% DMSO. The cells are then incubated with the substances for 72 hours at 37° C. in a humidified atmosphere containing 5% carbon dioxide. To determine the viability of the cells, 10 μl of an Alamar Blue solution (Biosource) are added and the fluorescence is measured at an extinction of 544 nm and an emission of 590 nm. For the calculation of the cell viability the emission value from untreated cells is set as 100% viability and the emission rates of treated cells are set in relation to the values of untreated cells. Viabilities are expressed as % values. The Graphpad Prism program (GraphPad Software, Inc) is used for the calculation of EC50 values out of the obtained dose-response curves. Viability is compared of proliferating cells grown in the absence of the inducer Ponasterone A, versus viability of cells arrested by the expression of ectopic p27Kip1 induced by Ponasterone A.
(§2) Representative values for anti-proliferation/cytotoxicity [measured as −log EC50 (mol/l)] determined in the aforementioned assays follow from the following tables B1, B2 and B3, in which the numbers of the compounds correspond to the numbers of the examples.

Experiment [2] relates to RKO p27 induced (arrested) colon adenocarcinoma cells. In words: Alamar Blue cell viability assay, RKO p27 induced by Ponasterone A (arrested). As to conditions: Homo sapiens, RKOp27, Table B1, cells arrested by Ponasterone A-induced p27Kip1, 72 hours, read-out: −log EC50 RKO p27 induced (arrested) (converted). The method, then: as §1, §2
(The colour change of resazurin is a common sign of viable cells or microbes.)

The test system of experiment [3] is RKO p27 or p21 uninduced (proliferating) colon adenocarcinoma cells. In words: Alamar Blue cell viability assay, RKO p27 or p21 uninduced (proliferating). As to conditions: Homo sapiens, RKOp27, 72 h, Table B2, anti-proliferative/cytotoxic activity, read-out: −log EC50 RKO p27 or p21 uninduced (proliferating) (converted). An outline of the steps:
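Viability read by Alamar Blue fluorescence (ex 544, em 590 nm), normalised to untreated wells, after 72 h, 37° C, 5% CO2 compound exposure in triplicate. Cells were uninduced (no Ponasterone A), proliferating RKO colon carcinoma p27 or p21 subclones in DMEM with 10% FCS; values are −log EC50 (mol/l).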

For experiment [4], the system named is RKO p27 or p21 induced (arrested) colon adenocarcinoma cells. In words: Alamar Blue cell viability assay, RKO p27 or p21 induced (arrested). The conditions noted are these: Homo sapiens, RKOp27, Table B2, cells arrested by Ponasterone A, 72 hours, read-out: −log EC50 RKO p27 or p21 induced (arrested) (converted). The method in brief: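 RKOp21 or RKOp27 subclones in DMEM/10% FCS with 10 μM Ponasterone A to induce p21/p27 arrest, seeded 24 h before compound; triplicate 72 h exposure at 37 °C. Alamar Blue fluorescence (544/590 nm) as % of untreated (1% DMSO) cells; EC50 from dose-response curves, reported as −log EC50 (mol/l).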

Structures are written as SMILES.

With `COc1ccc2[nH]c3c(c2c1)C[C@@]1(C)C(=O)N(CCN(C)C)C(=O)N1[C@@H]3c1cccc(O)c1` (racemic) [Example 7, (3aSR,10RS)-2-(2-Dimethylamino-ethyl)-10-(3-hydroxy-phenyl)-6-methoxy-3a-methyl-3a,4,9,10-tetrahydro-2,9,10a-triaza-cyclopenta[b]fluorene-1,3-dione], the results for the EC50 in experiment [1] and in experiment [2] were no more than 39.8 nM and no less than 3160 nM, respectively.
The like results for `COc1ccc2[nH]c3c(c2c1)C[C@@]1(C)C(=O)N(C)C(=O)N1[C@@H]3c1cccc(O)c1` (racemic) [Example 3, (3aSR,10RS)-10-(3-Hydroxy-phenyl)-6-methoxy-2,3a-dimethyl-3a,4,9,10-tetrahydro-2,9,10a-triaza-cyclopenta[b]fluorene-1,3-dione] were, in that order, no more than 39.8 nM and no less than 3160 nM.
On the same counts, the results for `CN1C(=O)N2[C@H](c3cccc(O)c3)c3[nH]c4ccc(Br)cc4c3C[C@@]2(C)C1=O` (racemic) [Example 4, (3aSR,10RS)-6-Bromo-10-(3-hydroxy-phenyl)-2,3a-dimethyl-3a,4,9,10-tetrahydro-2,9,10a-triaza-cyclopenta[b]fluorene-1,3-dione] are 39.8 to 251 nM and no less than 3160 nM.
Regarding `COc1ccc2[nH]c3c(c2c1)C[C@@]1(C)C(=O)N(CCCN2CCOCC2)C(=O)N1[C@@H]3c1cccc(O)c1` (racemic) [Example 148, (3aSR,10RS)-10-(3-Hydroxy-phenyl)-6-methoxy-3a-methyl-2-(3-morpholin-4-yl-propyl)-3a,4,9,10-tetrahydro-2,9,10a-triaza-cyclopenta[b]fluorene-1,3-dione], the figures for the EC50 in experiment [3] and in experiment [4] were no more than 39.8 nM and no less than 316 nM, respectively.
On the same counts, the results for `C[C@@]12Cc3c([nH]c4ccc(Cl)cc34)[C@@H](c3cccc(O)c3)N1C(=O)N(CCN1CC=CCC1)C2=O` (racemic) [Example 100, (3aSR,10RS)-6-Chloro-2-[2-(3,6-dihydro-2H-pyridin-1-yl)-ethyl]-10-(3-hydroxy-phenyl)-3a-methyl-3a,4,9,10-tetrahydro-2,9,10a-triaza-cyclopenta[b]fluorene-1,3-dione] are no more than 39.8 nM and no less than 3160 nM.
On the same counts, the results for `COc1ccc2[nH]c3c(c2c1)C[C@@]1(C)C(=O)N(CCCN2CCC(C)CC2)C(=O)N1[C@@H]3c1cccc(O)c1` (racemic) [Example 112, (3aSR,10RS)-10-(3-Hydroxy-phenyl)-6-methoxy-3a-methyl-2-[3-(4-methyl-piperidin-1-yl)-propyl]-3a,4,9,10-tetrahydro-2,9,10a-triaza-cyclopenta[b]fluorene-1,3-dione] are no more than 39.8 nM and no less than 316 nM.
The like results for `C[C@@]12Cc3c([nH]c4ccc(Cl)cc34)[C@@H](c3cccc(O)c3)N1C(=O)N(CCN1CCC(F)(F)C1)C2=O` (racemic) [Example 129, (3aSR,10RS)-6-Chloro-2-[2-(3,3-difluoro-pyrrolidin-1-yl)-ethyl]-10-(3-hydroxy-phenyl)-3a-methyl-3a,4,9,10-tetrahydro-2,9,10a-triaza-cyclopenta[b]fluorene-1,3-dione] were, in that order, 39.8 to 251 nM and no less than 316 nM.
Turning to `C#CCN(C)CCCN1C(=O)N2[C@H](c3cccc(O)c3)c3[nH]c4ccc(OC)cc4c3C[C@@]2(C)C1=O` (racemic) [Example 144], the EC50 in experiment [3] was 39.8 to 251 nM; in experiment [4], no less than 316 nM.
The like results for `COc1ccc2[nH]c3c(c2c1)C[C@@]1(C)C(=O)N(CCCNC(C)C)C(=O)N1[C@@H]3c1cccc(O)c1` (racemic) [Example 67, (3aSR,10RS)-10-(3-Hydroxy-phenyl)-2-(3-isopropylamino-propyl)-6-methoxy-3a-methyl-3a,4,9,10-tetrahydro-2,9,10a-triaza-cyclopenta[b]fluorene-1,3-dione] were, in that order, no more than 39.8 nM and no less than 3160 nM.
On the same counts, the results for `COc1ccc2[nH]c3c(c2c1)C[C@@]1(C)C(=O)N(CCN2CC=CC2)C(=O)N1[C@@H]3c1cccc(O)c1` (racemic) [Example 119, (3aSR,10RS)-2-[2-(2,5-Dihydro-pyrrol-1-yl)-ethyl]-10-(3-hydroxy-phenyl)-6-methoxy-3a-methyl-3a,4,9,10-tetrahydro-2,9,10a-triaza-cyclopenta[b]fluorene-1,3-dione] are no more than 39.8 nM and no less than 316 nM.
On the same counts, the results for `CCN(CCO)CCN1C(=O)N2[C@H](c3cccc(O)c3)c3[nH]c4ccc(Cl)cc4c3C[C@@]2(C)C1=O` (racemic) [Example 124, (3aSR,10RS)-6-Chloro-2-{2-[ethyl-(2-hydroxy-ethyl)-amino]-ethyl}-10-(3-hydroxy-phenyl)-3a-methyl-3a,4,9,10-tetrahydro-2,9,10a-triaza-cyclopenta[b]fluorene-1,3-dione] are no more than 39.8 nM and no less than 316 nM.
As to `C[C@@]12Cc3c([nH]c4ccc(Cl)cc34)[C@@H](c3cccc(O)c3)N1C(=O)N(CCN1CCCCC1)C2=O` (racemic) [Example 101, (3aSR,10RS)-6-Chloro-10-(3-hydroxy-phenyl)-3a-methyl-2-(2-piperidin-1-yl-ethyl)-3a,4,9,10-tetrahydro-2,9,10a-triaza-cyclopenta[b]fluorene-1,3-dione], the EC50 in experiment [3] is no more than 39.8 nM; in experiment [4], no less than 3160 nM.
On the same counts, the results for `COc1ccc2[nH]c3c(c2c1)C[C@@]1(C)C(=O)N(CCCCl)C(=O)N1[C@@H]3c1cccc(O)c1` (racemic) [Example 55, (3aSR,10RS)-2-(3-Chloro-propyl)-10-(3-hydroxy-phenyl)-6-methoxy-3a-methyl-3a,4,9,10-tetrahydro-2,9,10a-triaza-cyclopenta[b]fluorene-1,3-dione] are 39.8 to 251 nM and no less than 316 nM.
The like results for `C[C@@]12Cc3c([nH]c4ccc(Cl)cc34)[C@@H](c3cccc(O)c3)N1C(=O)N(CCNC1CC1)C2=O` (racemic) [Example 102, (3aSR,10RS)-6-Chloro-2-(2-cyclopropylamino-ethyl)-10-(3-hydroxy-phenyl)-3a-methyl-3a,4,9,10-tetrahydro-2,9,10a-triaza-cyclopenta[b]fluorene-1,3-dione] were, in that order, no more than 39.8 nM and no less than 3160 nM.
The like results for `CC1CCN(CCN2C(=O)N3[C@H](c4cccc(O)c4)c4[nH]c5ccc(Cl)cc5c4C[C@@]3(C)C2=O)CC1` (racemic) [Example 98, (3aSR,10RS)-6-Chloro-10-(3-hydroxy-phenyl)-3a-methyl-2-[2-(4-methyl-piperidin-1-yl)-ethyl]-3a,4,9,10-tetrahydro-2,9,10a-triaza-cyclopenta[b]fluorene-1,3-dione] were, in that order, no more than 39.8 nM and no less than 3160 nM.

In general, EC50 refers to the midpoint of the concentration-response curve.
